Marks after values point to notes of the source that are not given here.
Legend:
[1] = biological target: T1, rat liver glucose-6-phosphate dehydrogenase (DG-6-P) (Rattus norvegicus, UniProt P05370); assay: Effect on DG-6-P activity in 5.6-fold purified rat liver enzyme; type: biochemical; settings: for remaining activity at 5 µM / remaining activity at 25 µM: read-out: % of control (DG-6-P activity)
T1 construct: an additional enzyme purification procedure was performed; from tissue; host or cells: rat liver (5.6-fold purified enzyme preparation)
Excerpt: (§1) Rat liver glycogen phosphorylase, rat liver and skeletal muscle hexokinase, rat liver glucose-6-phosphate dehydrogenase (DG-6-P), rat liver and skeletal muscle phosphofructokinase were selected as potential targets for in vitro testing of the hypoglycemic activity of lupane triterpenoids.
Surprising results were obtained by examining the effect of lupane triterpenoids on glucose-6-phosphate activity. […] In both cases, the observed effects were dose-dependent. […] Table 1. Effect of lupane triterpenoids on DG-6-P activity in 5.6-fold purified rat liver

Wistar rats [2] = assay: Blood glucose after glucose load in rats with alloxan-induced diabetes; type: in vivo; settings: 100 mg/kg; for time after glucose administration at which glucose indicators normalized: alloxan diabetes, glucose load 4 g/kg; for Glucose concentration: glucose load 4 g/kg 4 hours after drug
Protocol: The study was conducted on Wistar rats weighing 220-250 g. All animals were subjected to two weeks of observation prior to the experiment to exclude infection. Rats were housed in standard cages, 5 individuals in each. The animals stayed in a room with a temperature of 22±2°C, air humidity 60-70% and in natural lighting (12/12 in a day/night cycle). The animals had free access to water and standard laboratory feed ad libitum.
Diabetes was caused by a single intraperitoneal administration of alloxan at a dose of 170 mg/kg bw. The development of diabetes was observed on the basis of the main symptoms (polydipsia, polyphagia), glycosuria and hyperglycemia. Animals with high glucose levels of at least 14 mmol/L were selected for the experiment.
Animals were randomized into 6 groups of 8 individuals each. The first group, the control group, was formed from healthy animals without diabetes. The control group (healthy animals) received NaCl 1 ml/kg; Group 2. - diabetes mellitus (DM), received NaCl 1 ml/kg; Group 3. - DM + Betulin, at a dose of 100 mg/kg; Group 4. - DM + Lupeol, at a dose of 100 mg/kg; Group 5 - DM + Betulonic acid, at a dose of 100 mg/kg; Group 6 - DM + Betulinic acid, at a dose of 100 mg/kg; Group 7 - DM + Betulin-3,28-diacetate, at a dose of 100 mg/kg.
4 hours after drug administration, all animals intragastrically received a 40% glucose solution at a dose of 4 g/kg. The time of administration is determined in the available literature on its pharmacokinetics - peak plasma levels of lupane triterpenoids in rats are observed 3-4 hours after intragastric administration.
Peripheral blood glucose was determined using a Roche AccuCheck Active meter (USA) before and after glucose administration every 60 minutes for 5 hours. A drop of blood was taken from the tail tip incision.

Wistar rats [3] = assay: Pancreatic islet morphometry in rats with alloxan-induced diabetes, 30 days treatment; type: in vivo
Protocol: The possible cytoprotective effect of lupane triterpenoids on the functional state of the pancreas in alloxan-induced diabetes in rats was evaluated. Alloxane was used to induce diabetes, which causes damage to the necrotic islet type pancreatic apparatus due to selective accumulation in β-cells and induction of massive free radical generation. The study was conducted on Wistar rats weighing 220-250 g. All animals were subjected to two weeks of observation prior to the experiment to exclude infection. Rats were housed in standard cages, 5 individuals in each. […] The animals had free access to water and standard laboratory feed ad libitum. Diabetes was caused by a single intraperitoneal administration of alloxan at a dose of 170 mg/kg bw. The development of diabetes was observed on the basis of the main symptoms (polydipsia, polyphagia), glycosuria and hyperglycemia. Animals with high glucose levels of at least 14 mmol/L were selected for the experiment. Animals were randomized into 8 groups of 8 individuals each. The first group, the control group, was formed from healthy animals without diabetes. The control group (healthy animals) received NaCl 1 ml/kg; Group 2 - DM + Lupeol, at a dose of 100 mg/kg; Group 3 - DM + Betulonic acid, at a dose of 100 mg/kg; Group 4 - DM + 3,28-betulin diacetate, at a dose of 100 mg/kg; Group 5 - DM + Betulinic acid, at a dose of 50 mg/kg; Group 6 - DM + Betulinic acid, at a dose of 100 mg/kg; Group 7 - DM + Betulin, at a dose of 50 mg/kg; Group 8 - DM + Betulin, at a dose of 100 mg/kg.

Wistar rats [4] = assay: Blood glucose in rats with glucose-induced hyperglycemia (OGTT-2 / OGTT-4); type: in vivo; settings: compared to control animals
Protocol: To study the effect of betulin, 3,28-diacetate betulin, betulinic acid and lupeol on blood glucose levels in rats with induced hyperglycemia, the animals received 2 hours prior to glucose administration, test substances at doses of 100 or 1000 mg/kg. Hyperglycaemia was caused by oral administration of a 40% glucose solution at a dose of 2 g/kg (OGTT-2) or 4 g/kg (OGTT-4). The study was conducted on Wistar rats weighing 220-250 g. All animals were subjected to two weeks of observation prior to the experiment to exclude infection. Rats were housed in standard cages, 5 individuals in each. […] The animals had free access to water and standard laboratory feed ad libitum. Animals were randomized into 5 groups, 8 individuals each. Hyperglycaemia was caused by administration of a 40% glucose solution at doses of 2 or 4 g/kg. […] Blood glucose was determined with a Roche AccuCheck Active glucometer (USA) before and after glucose administration every 30 minutes for 2 hours and then every 60 minutes for 6 hours.

[5] = biological target: T2, Rat liver glycogen phosphorylase (Rattus norvegicus, UniProt P09811); assay: Effect on glycogen phosphorylase activity in rat liver homogenates and post-mitochondrial fraction; type: biochemical
T2 construct: from tissue; host or cells: rat liver homogenates and post-mitochondrial fraction
T2 sequence (P09811 1-850): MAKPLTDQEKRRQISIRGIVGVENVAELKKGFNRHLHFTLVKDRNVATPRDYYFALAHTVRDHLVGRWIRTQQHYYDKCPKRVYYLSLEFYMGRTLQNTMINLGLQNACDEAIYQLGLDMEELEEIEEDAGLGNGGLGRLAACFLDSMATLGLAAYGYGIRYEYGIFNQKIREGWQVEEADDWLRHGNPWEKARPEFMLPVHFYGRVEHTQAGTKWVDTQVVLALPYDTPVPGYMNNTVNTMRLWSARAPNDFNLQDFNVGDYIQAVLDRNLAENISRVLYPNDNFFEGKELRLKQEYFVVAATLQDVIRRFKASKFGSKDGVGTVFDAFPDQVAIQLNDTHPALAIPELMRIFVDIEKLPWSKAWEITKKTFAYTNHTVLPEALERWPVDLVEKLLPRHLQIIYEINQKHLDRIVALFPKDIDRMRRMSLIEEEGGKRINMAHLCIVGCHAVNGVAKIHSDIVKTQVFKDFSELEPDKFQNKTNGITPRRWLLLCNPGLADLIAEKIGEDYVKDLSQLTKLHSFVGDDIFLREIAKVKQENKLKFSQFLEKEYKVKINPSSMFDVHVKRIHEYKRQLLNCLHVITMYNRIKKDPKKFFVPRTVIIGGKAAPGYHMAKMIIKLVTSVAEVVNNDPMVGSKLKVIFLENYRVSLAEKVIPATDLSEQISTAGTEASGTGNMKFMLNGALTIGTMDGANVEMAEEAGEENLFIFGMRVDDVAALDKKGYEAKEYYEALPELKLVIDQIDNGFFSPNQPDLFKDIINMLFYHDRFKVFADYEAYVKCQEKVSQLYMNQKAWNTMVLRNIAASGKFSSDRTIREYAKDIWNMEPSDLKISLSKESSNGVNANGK
Excerpt: as §1

pancreatic islet β-cells = assay: Insulin secretion by isolated Langerhans islets (enzyme immunoassay); type: cell-based; settings: 10 µM, 30 minutes incubation, compared to the control group
Protocol: To study the effect of betulin and betulinic acid on insulin secretion by pancreatic islet β-cells, their solutions in DMSO were incubated with isolated Langerhans islands in concentrations of 10 µM for 30 minutes, after which the insulin content in the incubation medium was determined by enzyme immunoassay.
The strongest reaction was observed after 30 minutes of incubation in the presence of 10 µM lupane triterpenoids (Figure 1).

[6] = 50 mg/kg/day for 30 days, compared to the untreated group

T1 sequence (P05370 whole entry): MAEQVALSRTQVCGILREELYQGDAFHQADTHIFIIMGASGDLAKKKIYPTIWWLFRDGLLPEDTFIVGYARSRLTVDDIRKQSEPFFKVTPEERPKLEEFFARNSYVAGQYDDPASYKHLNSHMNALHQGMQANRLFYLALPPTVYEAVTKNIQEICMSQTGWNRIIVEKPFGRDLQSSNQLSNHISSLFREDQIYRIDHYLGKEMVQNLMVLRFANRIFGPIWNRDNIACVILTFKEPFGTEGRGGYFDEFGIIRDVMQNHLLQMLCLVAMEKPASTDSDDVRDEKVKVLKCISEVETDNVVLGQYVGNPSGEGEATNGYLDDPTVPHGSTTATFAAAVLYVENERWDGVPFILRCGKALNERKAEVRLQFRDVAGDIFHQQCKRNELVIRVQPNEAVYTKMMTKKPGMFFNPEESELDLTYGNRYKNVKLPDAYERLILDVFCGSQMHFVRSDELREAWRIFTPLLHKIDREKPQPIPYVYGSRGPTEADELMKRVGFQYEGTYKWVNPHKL

For `CC1(C)CC[C@]23CC[C@]4(C)[C@H](CC[C@@H]5[C@@]6(C)CC[C@H](O)C(C)(C)[C@@H]6CC[C@]54C)[C@H]2[C@H]1OC3` [Allobetulin], the “E (DG-6-P activity)” value ([1]; 5 µM) was 0,151±0,004, the remaining activity at 5 µM ([1]; 5 µM) was 72% and the “E (DG-6-P activity)” value ([1]; 25 µM) was 0,103±0,002. The remaining activity at 25 µM ([1]; 25 µM) was 49%.
With `C=C(C)[C@@H]1CC[C@]2(C(=O)O)CC[C@]3(C)[C@H](CC[C@@H]4[C@@]5(C)CC[C@H](O)C(C)(C)[C@@H]5CC[C@]43C)[C@@H]12` [Betulinic acid] the remaining activity at 5 µM ([1]; 5 µM) was 68.8%, the remaining activity at 25 µM ([1]; 25 µM) was 44.2% and the “time after glucose administration at which glucose indicators normalized” value (Wistar rats [2]) was 4 h. The Glucose concentration (Wistar rats [2]; blood collection time 0 hours) was 10,12±0,70 mmol/l, the Glucose concentration (Wistar rats [2]; blood collection time 2 hours) was 25,64±1,50 mmol/l and the Glucose concentration (Wistar rats [2]; blood collection time 5 hours) was 7,88±1,30* * mmol/l. For the same compound, the “increase of the number of β-cells in the islets” value (Wistar rats [3]; [6]) was 25-35%, the islet diameter increase (Wistar rats [3]; [6]) was 10-15% and the “reduction in blood glucose levels at the peak of hyperglycemia” value (Wistar rats [4]) was 30-35%.
In the case of `C=C(C)[C@@H]1CC[C@]2(CO)CC[C@]3(C)[C@H](CC[C@@H]4[C@@]5(C)CC[C@H](O)C(C)(C)[C@@H]5CC[C@]43C)[C@@H]12` [Betulin], the glycogen phosphorylase activity [5] is reported as “greatest inhibitory effect”, the “E (DG-6-P activity)” value ([1]; 5 µM) is reported as 0,149±0,004 and the remaining activity at 5 µM ([1]; 5 µM) is reported as 71%. For the same compound, the “E (DG-6-P activity)” value ([1]; 25 µM) was 0,100±0,002, the remaining activity at 25 µM ([1]; 25 µM) was 47.6% and the “time after glucose administration at which glucose indicators normalized” value (Wistar rats [2]) was 4 h. For the same compound, the Glucose concentration (Wistar rats [2]; blood collection time 0 hours) was 10,82±0,31 mmol/l, the Glucose concentration (Wistar rats [2]; blood collection time 2 hours) was 22,61±0,4 mmol/l and the Glucose concentration (Wistar rats [2]; blood collection time 5 hours) was 6,01±0,78 mmol/l. For the same compound, the “insulin secretion by pancreatic islet β-cells” value (pancreatic islet β-cells) was “statistically significantly increase”, the “area of Langerhans islets and their number” value (Wistar rats [3]; 50 mg/kg/day for 30 days) was “tendency to increase” and the “increase of the number of β-cells in the islets” value (Wistar rats [3]; [6]) was 25-35%. The islet diameter increase (Wistar rats [3]; [6]) was 10-15%, the “morphological picture of the pancreas” value (Wistar rats [3]; 100 mg/kg/day for 30 days, compared to the untreated group) was “significant improvement” and the “reduction in blood glucose levels at the peak of hyperglycemia” value (Wistar rats [4]) was 30-35%.
`C=C(C)[C@@H]1CC[C@]2(C)CC[C@]3(C)[C@H](CC[C@@H]4[C@@]5(C)CC[C@H](O)C(C)(C)[C@@H]5CC[C@]43C)[C@@H]12` [Lupeol] was tested, and the “E (DG-6-P activity)” value ([1]; 5 µM) was 0,143±0,005, the remaining activity at 5 µM ([1]; 5 µM) was 68% and the “E (DG-6-P activity)” value ([1]; 25 µM) was 0,113±0,009. The remaining activity at 25 µM ([1]; 25 µM) was 53.6% and the Glucose concentration (Wistar rats [2]; blood collection time 5 hours) was 9,38±0,75 mmol/l.
With `C=C(C)[C@@H]1CC[C@]2(C(=O)O)CC[C@]3(C)[C@H](CC[C@@H]4[C@@]5(C)CCC(=O)C(C)(C)[C@@H]5CC[C@]43C)[C@@H]12` [Betulonic acid] the glycogen phosphorylase activity [5] was “greatest inhibitory effect”, the “E (DG-6-P activity)” value ([1]; 5 µM) was 0,148±0,003 and the remaining activity at 5 µM ([1]; 5 µM) was 70.3%. For the same compound, the “E (DG-6-P activity)” value ([1]; 25 µM) was 0,109±0,007, the remaining activity at 25 µM ([1]; 25 µM) was 51.9% and the Glucose concentration (Wistar rats [2]; blood collection time 0 hours) was 10,32±0,77 mmol/l. For the same compound, the Glucose concentration (Wistar rats [2]; blood collection time 2 hours) was 18,5±0,32 mmol/l and the Glucose concentration (Wistar rats [2]; blood collection time 5 hours) was 6,52±0,7 mmol/l.
In the case of `C=C(C)[C@@H]1CC[C@]2(COC(C)=O)CC[C@]3(C)[C@H](CC[C@@H]4[C@@]5(C)CC[C@H](OC(C)=O)C(C)(C)[C@@H]5CC[C@]43C)[C@@H]12` [3,28-betulin diacetate], the “E (DG-6-P activity)” value ([1]; 5 µM) is reported as 0,158±0,002, the remaining activity at 5 µM ([1]; 5 µM) is reported as 75% and the “E (DG-6-P activity)” value ([1]; 25 µM) is reported as 0,111±0,008. For the same compound, the remaining activity at 25 µM ([1]; 25 µM) was 52.8% and the Glucose concentration (Wistar rats [2]; blood collection time 5 hours) was 8,51±0,52 mmol/l.

From EP3730147A1, “PREPARATION WITH HYPOGLYCEMIC EFFECT” (Instytut Biotechnologii i Badan Medycznych "Biolamed" SP. Z …, priority 2019, dated 2020)
